Data on 15 compounds can be found in PubChem BioAssay (NCI).

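Test compounds were applied to cells in 96-well plates for 48 hours at 5 doses. At the TGI there is no net growth.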 Where only a bound is given, the exact number is not on record here.

Common to all, as to assay: growth of human tumour cells (NCI), 48 h
In experiment [1] the test system is SW-620 colon.
Experiment [2] concerns K-562 leukemia.
Experiment [3] has as its system OVCAR-4 ovarian.
Experiment [4] deals with NCI/ADR-RES ovarian.
The test system of experiment [5] is UACC-62 melanoma.
Experiment [6] has as its system HS 578T breast.
Experiment [7] deals with KM12 colon.
For experiment [8], the system named is CCRF-CEM leukemia.
The subject of experiment [9] is OVCAR-5 ovarian.
The test system of experiment [10] is SK-MEL-28 melanoma.
Experiment [11] relates to UACC-257 melanoma.
Experiment [12] concerns MOLT-4 leukemia.
The test system of experiment [13] is OVCAR-3 ovarian.
Experiment [14] deals with HCT-15 colon.
In experiment [15] the test system is HL-60(TB) leukemia.
For experiment [16], the system named is PC-3 prostate.
The subject of experiment [17] is MDA-N.
The subject of experiment [18] is MDA-MB-231 breast.
Experiment [19] has as its system UO-31 renal.
In experiment [20] the test system is SR leukemia.

With `COc1ccc2c(c1)-c1nc(=S)n(CCCN(C)C)c3ccc([N+](=O)[O-])c(c13)N2`, the TGI in [1] amounted to 7.18 µM; in experiment [2], 3.04 µM; in [3], 2.52 µM; in experiment [4], 9.23 µM; in experiment [5] it was 25.9 µM; in experiment [6] it was 5.6 µM. Moreover, the TGI amounted to 6.31 µM in experiment [7]; 1.41 µM in experiment [8]; 3.62 µM in experiment [9]; 2.81 µM in experiment [10]; 3.6 µM in [11]; 2.15 µM in experiment [12]. Also, the TGI in experiment [13] was found to be 18.5 µM; in experiment [14], 17.1 µM; in [15], 1.64 µM; in experiment [16] it was 17.4 µM; in experiment [17], 2.2 µM; in experiment [18] it was 2.1 µM. In [19], this compound registered a TGI of 1.82 µM.
In the case of `Cc1ccc(S(=O)(=O)c2ccsc2NC(=O)C(F)(F)F)cc1`, the TGI in [1], in experiment [3], in [4], in [5], in experiment [6] and in experiment [7] was over 100 µM in each case. Moreover, the TGI is over 100 µM in experiment [9]; over 100 µM in [10]; over 100 µM in [11]; 45.9 µM in experiment [12]; over 100 µM in [13]; over 100 µM in experiment [14]. Also, the TGI was over 100 µM in [16], 98.9 µM in experiment [17], 56.2 µM in experiment [18] and 96.1 µM in experiment [19].
Take `COc1ccccc1NC(=S)Nc1cc(C)cc(C)n1`: the TGI in experiment [1], in experiment [2], in experiment [3], in [4], in [5] and in experiment [6] was over 100 µM in each case. The TGI in experiment [7], in experiment [8], in experiment [9], in experiment [10], in experiment [11] and in [12] was over 100 µM each time. Besides, the TGI in experiment [13], in experiment [14], in experiment [15], in experiment [16], in [17] and in experiment [18] was over 100 µM in each case. The compound further came in with a TGI in experiment [19] of over 100 µM.
As to `CN1CCN(c2ccc3[nH]c(-c4cc(O)c5c(nc(CO)n5C)c4O)nc3n2)CC1`, the TGI in experiment [1] was over 100 µM; in experiment [2], over 100 µM; in experiment [3] it was over 100 µM; in experiment [4], over 100 µM; in experiment [5], 27.8 µM; in experiment [6], over 100 µM. The TGI in experiment [7] was over 100 µM; in experiment [8] it was 58.6 µM; in experiment [9], over 100 µM; in [10] it was over 100 µM; in experiment [11] it was over 100 µM; in [12], 48.2 µM. Also, the TGI in [13] is over 100 µM; in experiment [14], over 100 µM; in experiment [15], 47.2 µM; in experiment [16], over 100 µM; in experiment [17], over 100 µM; in [18], 63.1 µM. Further, the TGI in experiment [19] was over 100 µM.
Regarding `CC(=N)OC1CC2CCC1(C)C2(C)C` (stereo unspecified), the TGI in experiment [20], in [1], in experiment [2], in experiment [3], in experiment [5] and in experiment [6] was over 100 µM throughout. Moreover, the TGI in experiment [7], in experiment [8], in [9], in [10], in experiment [11] and in [12] was over 100 µM throughout. The TGI in [13], in experiment [14], in experiment [15], in experiment [16], in experiment [17] and in [18] was over 100 µM each time. The same compound showed a TGI in [19] of over 100 µM.
Take `CCOC(=O)CCCNC(=O)CCCCC(=O)N(C)C`: the TGI in [1], in experiment [2], in experiment [4], in experiment [5], in experiment [6] and in experiment [7] was over 100 µM in each case. The TGI in experiment [8], in experiment [9], in experiment [10], in experiment [11], in experiment [12] and in [13] was over 100 µM throughout. The TGI in experiment [14], in experiment [15], in experiment [16], in experiment [17], in [18] and in [19] was over 100 µM throughout.
As to `O=C(Cn1c2c(c3ccccc31)CCCC2)N1CCCC1`, the TGI in [20] is over 100 µM; in experiment [1] it was over 100 µM; in [3], 73.3 µM; in [4], over 100 µM; in [5] it was over 100 µM; in [6], 87.2 µM. For the same compound, the TGI in [9], in experiment [10], in experiment [11], in [13], in experiment [14] and in experiment [15] was over 100 µM throughout. The TGI in [16], in experiment [17] and in experiment [19] was over 100 µM each time.
Take `Nc1nc(Cl)c(CO)c(NCC2(CO)CC(CCc3ccccc3)C2)n1` (stereo unspecified): the TGI is over 100 µM in [20]; 54.2 µM in experiment [1]; 43.1 µM in [2]; 54.9 µM in experiment [3]; 73.8 µM in experiment [4]; 14.2 µM in experiment [7]. Further, the TGI in experiment [8] was 69.5 µM; in [9], over 100 µM; in experiment [10] it was 47 µM; in experiment [11], 32.4 µM; in [12], 14.7 µM; in experiment [13], 63.1 µM. Moreover, the TGI in experiment [14] is over 100 µM; in experiment [15], 28.9 µM; in [16], over 100 µM; in [17], over 100 µM; in experiment [18], 39.1 µM; in experiment [19], 68.8 µM.
In the case of `COC(=O)/C=C(/C=C1/C(C#N)=C(N)N(c2ccc(Cl)cc2)C1(C)/C(=C/C(=O)OC)C(=O)OC)C(=O)OC` (stereo unspecified), the TGI is over 100 µM in experiment [20]; over 100 µM in experiment [1]; 50.5 µM in experiment [2]; over 100 µM in experiment [3]; over 100 µM in experiment [4]; over 100 µM in experiment [5]. Moreover, the TGI in experiment [8], in experiment [9], in experiment [10], in experiment [11], in experiment [12] and in experiment [13] was over 100 µM each time. The TGI was over 100 µM in experiment [14]; 41.8 µM in experiment [15]; over 100 µM in experiment [16]; over 100 µM in [17]; over 100 µM in experiment [18]; over 100 µM in experiment [19].
As for `CCOCc1c(C)cc(C)c(C2C(C(=O)c3ccccc3)N3c4ccccc4C=CC3C2(C#N)C(=O)OCC)c1C` (stereo unspecified), the TGI in experiment [20], in experiment [1], in experiment [2], in experiment [3], in experiment [4] and in experiment [5] was over 100 µM throughout. The TGI in [6] was over 100 µM; in [7], 54.9 µM; in experiment [8], over 100 µM; in [9], over 100 µM; in [10] it was over 100 µM; in experiment [11] it was over 100 µM. Moreover, the TGI in [12] is over 100 µM; in experiment [13] it was over 100 µM; in experiment [14] it was over 100 µM; in experiment [15] it was over 100 µM; in [16] it was over 100 µM; in [17], 87 µM. In experiment [19], this compound had a TGI of over 100 µM.
For the compound `O=c1cc(N2CCNCC2)nc2ccccn12`, the TGI in experiment [1], in experiment [2], in experiment [4], in experiment [5], in experiment [6] and in [7] was over 100 µM throughout. Moreover, the TGI in experiment [8], in experiment [9], in experiment [11], in experiment [12], in experiment [13] and in experiment [14] was over 100 µM in each case. For the same compound, the TGI in experiment [15], in experiment [16], in [17], in [18] and in experiment [19] was over 100 µM in each case.
In the case of `CCN(CC)CCn1nc(N)c2nc3ccccc3nc21`, the TGI in experiment [20], in [1], in experiment [2], in experiment [3], in experiment [4] and in experiment [5] was over 100 µM throughout. The TGI in experiment [6], in experiment [7], in experiment [8], in experiment [9], in experiment [10] and in experiment [11] was over 100 µM each time. Besides, the TGI in experiment [12], in experiment [13], in experiment [14], in [15], in [16] and in [17] was over 100 µM in each case. In experiment [19], the TGI was over 100 µM.
As for `O=c1[nH]c(=O)n(CCOc2ccccc2)cc1Nc1ccccc1`, the TGI in experiment [20], in experiment [1], in [2], in experiment [4], in [5] and in experiment [6] was over 100 µM each time. Further, the TGI in experiment [7], in experiment [8], in [9], in experiment [10], in experiment [11] and in experiment [12] was over 100 µM in each case. Further, the TGI in [13], in experiment [14], in [16], in [17] and in [19] was over 100 µM each time.
In the case of `COc1cc(/C=C2/SC(c3ccccc3)N(c3ccccc3Cl)C2=O)cc(OC)c1OC` (stereo unspecified), the TGI in [20] is 58.9 µM; in [1] it was over 100 µM; in experiment [2], over 100 µM; in experiment [3], over 100 µM; in [4], 85.3 µM; in [5], over 100 µM. Moreover, the TGI is over 100 µM in experiment [6]; over 100 µM in [7]; 43.4 µM in experiment [8]; over 100 µM in experiment [9]; over 100 µM in experiment [10]; over 100 µM in experiment [11]. In addition, the TGI in [12] is 68.2 µM; in [13], over 100 µM; in experiment [14], over 100 µM; in [15] it was over 100 µM; in [17], 69.7 µM; in experiment [18] it was over 100 µM. In [19], the TGI was over 100 µM.
With `N#CC12CNCC1CN=N2` (stereo unspecified), the TGI in [20], in [1], in experiment [2], in [3], in [4] and in [5] was over 100 µM in each case. Also, the TGI in [7], in [8], in experiment [9], in [10], in [11] and in experiment [12] was over 100 µM throughout. Further, the TGI in experiment [13], in experiment [14], in experiment [15], in experiment [16], in [17] and in experiment [18] was over 100 µM throughout. Besides, the TGI in experiment [19] is over 100 µM.
